Reference: US20250171457A1, “NITROGEN-CONTAINING HETEROCYCLIC COMPOUND HAVING NRF2 ACTIVATION EFFECT” (CHUGAI SEIYAKU KABUSHIKI KAISHA, priority 2022, published 2025)
pEC50: −log10 of the molar value.

test system: Nrf2 transcriptional activity (pARE-Luc reporter) in HepG2 cells; test: In vitro Nrf2 transcriptional activity measurement by ARE-dependent reporter assay in HepG2 cell; type: cell-based, human; settings: Homo sapiens; HepG2 cells transfected with pARE-Luc, 4 hours at 37° C.; luciferase activity of Example 1-54 or Example 17-23 at 3.75 μM defined as 100%
Description: Test Example 1: In Vitro Nrf2 Transcriptional Activity Measurement by ARE-Dependent Reporter Assay in HepG2 Cell
A human liver cancer-derived cell line HepG2 was transfected with pGL4.37 vector (pARE-Luc, Promega Corp.) and incubated overnight at 37° C. in a humidified atmosphere containing 5% CO2. The cells were dissociated by trypsin treatment, inoculated to a 384-well plate supplemented with a test compound, and incubated at 37° C. for 4 hours. Then, Bright-Glo Reagent (Promega Corp.) was added to the plate, and luciferase activity was measured with Envision plate reader.
Luciferase activity obtained through the action of the compound of Example 1-54 or Example 17-23 at a concentration of 3.75 μM was defined as 100%. The luciferase activity of each well was converted to a response rate (%). The dose-response curve of the compound of each Example was prepared to calculate a 50% effective concentration (EC50).

Row | pEC50 | SMILES
1 | 8.72 | O=C(O)c1cc(F)c(-c2cccc3c2OCN(C(=O)c2c(Cl)cc(N4CCC5(CCOC5)C4)cc2Cl)C3)cc1N1CCOCC1 (stereo not shown) [Compound 1-49, 4-[3-[2,6-Dichloro-4-(2-oxa-7-azaspiro[4.4]nonan-7-yl)benzoyl]-2,4-dihydro-1,3-benzoxazin-8-yl]-5-fluoro-2-morpholin-4-ylbenzoic acid]
2 | 8.34 | O=C(O)c1cc(F)c(-c2cccc3c2OCN(C(=O)c2c(Cl)cc(N4CCC4=O)cc2Cl)C3)cc1N1CCOCC1 [Compound 1-50, 4-[3-[2,6-Dichloro-4-(2-oxoazetidin-1-yl)benzoyl]-2,4-dihydro-1,3-benzoxazin-8-yl]-5-fluoro-2-morpholin-4-ylbenzoic acid]
3 | 8.00 | O=C(O)c1cc(F)c(-c2cccc3c2OCN(C(=O)c2c(Cl)cc(N4CCOC4=O)cc2Cl)C3)cc1N1CCOCC1 [Compound 1-51, 4-[3-[2,6-Dichloro-4-(2-oxo-1,3-oxazolidin-3-yl)benzoyl]-2,4-dihydro-1,3-benzoxazin-8-yl]-5-fluoro-2-morpholin-4-ylbenzoic acid]
4 | 7.85 | O=C(O)c1cc(F)c(-c2cccc3c2OCN(C(=O)c2c(Cl)cc(N4CCCC4=O)cc2Cl)C3)cc1N1CCOCC1 [Compound 1-52, 4-[3-[2,6-Dichloro-4-(2-oxopyrrolidin-1-yl)benzoyl]-2,4-dihydro-1,3-benzoxazin-8-yl]-5-fluoro-2-morpholin-4-ylbenzoic acid]
5 | 8.30 | CS(=O)(=O)C1CN(c2cc(Cl)c(C(=O)N3COc4c(cccc4-c4cc(N5CCOCC5)c(C(=O)O)cc4F)C3)c(Cl)c2)C1 [Compound 1-53, 4-[3-[2,6-Dichloro-4-(3-methylsulfonylazetidin-1-yl)benzoyl]-2,4-dihydro-1,3-benzoxazin-8-yl]-5-fluoro-2-morpholin-4-ylbenzoic acid]

The next lines start with the compound.

Row | SMILES | pEC50
6 | O=C(O)c1cc(F)c(-c2cccc3c2OCN(C(=O)c2c(Cl)cc(N4CC(F)(F)C(F)(F)C4)cc2Cl)C3)cc1N1C2CCC1COC2 [Compound 1-44, 4-[3-[2,6-Dichloro-4-(3,3,4,4-tetrafluoropyrrolidin-1-yl)benzoyl]-2,4-dihydro-1,3-benzoxazin-8-yl]-5-fluoro-2-(3-oxa-8-azabicyclo[3.2.1]octan-8-yl)benzoic acid] | 8.19
7 | CN1CCN(c2cc(Cl)c(C(=O)N3COc4c(cccc4-c4cc(N5C6CCC5COC6)c(C(=O)O)cc4F)C3)c(Cl)c2)CC(F)(F)C1 [Compound 1-45, 4-[3-[2,6-Dichloro-4-(6,6-difluoro-4-methyl-1,4-diazepan-1-yl)benzoyl]-2,4-dihydro-1,3-benzoxazin-8-yl]-5-fluoro-2-(3-oxa-8-azabicyclo[3.2.1]octan-8-yl)benzoic acid] | 8.43
8 | Cn1cc2c(n1)CN(c1cc(Cl)c(C(=O)N3COc4c(cccc4-c4cc(N5C6CCC5COC6)c(C(=O)O)cc4F)C3)c(Cl)c1)C2 [Compound 1-46, 4-[3-[2,6-Dichloro-4-(2-methyl-4,6-dihydropyrrolo[3,4-c]pyrazol-5-yl)benzoyl]-2,4-dihydro-1,3-benzoxazin-8-yl]-5-fluoro-2-(3-oxa-8-azabicyclo[3.2.1]octan-8-yl)benzoic acid] | 8.72
9 | N#CC1CC2(C1)CN(c1cc(Cl)c(C(=O)N3COc4c(cccc4-c4cc(N5C6CCC5COC6)c(C(=O)O)cc4F)C3)c(Cl)c1)C2 [Compound 1-47, 4-[3-[2,6-Dichloro-4-(6-cyano-2-azaspiro[3.3]heptan-2-yl)benzoyl]-2,4-dihydro-1,3-benzoxazin-8-yl]-5-fluoro-2-(3-oxa-8-azabicyclo[3.2.1]octan-8-yl)benzoic acid] | 7.92
10 | CN1CC2CN(c3cc(Cl)c(C(=O)N4COc5c(cccc5-c5cc(N6CCOCC6)c(C(=O)O)cc5F)C4)c(Cl)c3)CC2C1 (stereo not shown) [Compound 1-48, 4-[3-[2,6-Dichloro-4-(2-methyl-1,3,3a,4,6,6a-hexahydropyrrolo[3,4-c]pyrrol-5-yl)benzoyl]-2,4-dihydro-1,3-benzoxazin-8-yl]-5-fluoro-2-morpholin-4-ylbenzoic acid] | 8.64
